“Also recorded” adds a separate entry of the source.
Experiments:
[1] = system: If current; settings: stated as known from WO 00/75133; cited from earlier work
[2] = Hygroscopicity of the crystals (FIG. 5 and FIG. 6); format: physicochemical; settings: crystal forms of compound A compared, FIG. 5 (α-type, Example 3) and FIG. 6 (β-type, Example 2); monophosphate

melting point [°C] | SMILES | inhibitory action for If current [1] | hygroscopicity [2]
 | COc1cc2c(cc1OC)CN(C(=O)[C@@H]1CCCN(CCNC(=O)c3ccc(F)cc3)C1)CC2.O=P(O)(O)O [compound A, (−)-N-{2-[(R)-3-(6,7-dimethoxy-1,2,3,4-tetrahydroisoquinoline-2-carbonyl)piperidino]ethyl}-4-fluorobenzamide monophosphate] | inhibitory action for If current | 
203.8 to 204.7 | COc1cc2c(cc1OC)CN(C(=O)[C@@H]1CCCN(CCNC(=O)c3ccc(F)cc3)C1)CC2.O=P(O)(O)O [α-type crystal, (−)-N-{2-[(R)-3-(6,7-dimethoxy-1,2,3,4-tetrahydroisoquinoline-2-carbonyl)piperidino]ethyl}-4-fluorobenzamide monophosphate] |  | particularly good hygroscopicity; also recorded: superior to the β-type crystal in terms of hygroscopicity
195.5 to 196.3 | COc1cc2c(cc1OC)CN(C(=O)[C@@H]1CCCN(CCNC(=O)c3ccc(F)cc3)C1)CC2.O=P(O)(O)O [β-type crystal, (−)-N-{2-[(R)-3-(6,7-dimethoxy-1,2,3,4-tetrahydroisoquinoline-2-carbonyl)piperidino]ethyl}-4-fluorobenzamide monophosphate] |  | 

Source: patent US20070129357A1, “Novel crystals of fluorobenzamide derivative” (priority 2003, published 2007)
